{
  "source": "patent US7144893B2",
  "about": "“4-aryl quinols and analogs thereof as therapeutic agents” (Cancer Research Technology Limited, priority 2001, dated 2006)",
  "key": {"thioredoxin": {"target": "thioredoxin (Homo sapiens, UniProt P10599)", "sequence (P10599 whole entry)": "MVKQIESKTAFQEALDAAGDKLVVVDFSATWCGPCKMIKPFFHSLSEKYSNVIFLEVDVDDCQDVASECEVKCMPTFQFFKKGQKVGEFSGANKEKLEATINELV", "conditions": "irreversible inhibitor of thioredoxin; cited from earlier work"}, "A549 lung adenocarcinoma": {"tested_on": "A549 lung adenocarcinoma", "experiment": "Growth inhibitory assay (MTT, 72 hr)", "type": "cell-based", "conditions": "Homo sapiens, 72 hr exposure", "description": "(§1) Compounds were prepared as 10 mM top stocks, dissolved in DMSO, and stored at 4° C., protected from light, for a maximum period of 4 weeks. Human derived cell lines (HCT 116, HT29 colon carcinoma; MCF-7 (ER+), MDA 468 (ER−) breast carcinoma; A549 lung adenocarcinoma) were routinely cultivated at 37° C. in an atmosphere of 5% CO2 in RPMI 1640 medium supplemented with 2 mM L-glutamine and 10% fetal calf serum and subcultured twice weekly to maintain continuous logarithmic growth. Cells were seeded into 96-well microtiter plates at a density of 5×10^3 per well and allowed 24 hr to adhere before drugs were introduced (final concentration 0.1 nM–100 μM, n=8). Serial drug dilutions were prepared in medium immediately prior to each assay. At the time of drug addition and following 72 hr exposure, MTT was added to each well (final concentration 400 µg/mL). Incubation at 37° C. for 4 hr allowed reduction of MTT by mitochondrial dehydrogenase to an insoluble formazan product. Well contents were aspirated and formazan solubilized by addition of DMSO:glycine buffer (pH 10.5) (4:1). Absorbance was measured using an Anthos Labtec systems plate reader at 550 nm, and used as a measure of cell viability; thus cell growth or drug toxicity was determined."}, "HCT 116 colon carcinoma": {"tested_on": "HCT 116 colon carcinoma", "experiment": "Growth inhibitory assay (MTT, 72 hr)", "type": "cell-based", "conditions": "Homo sapiens, 72 hr exposure", "description": "as §1"}, "HT29 colon carcinoma": {"tested_on": "HT29 colon carcinoma", "experiment": "Growth inhibitory assay (MTT, 72 hr)", "type": "cell-based", "conditions": "Homo sapiens, HT-29, 72 hr exposure", "description": "as §1"}, "renal sub-panel": {"tested_on": "renal sub-panel", "experiment": "cells", "type": "cell-based", "conditions": "Homo sapiens, 60 cell, read-out: mean LC50 in renal sub-panel", "description": "(§2) Compounds were tested for in vitro activity (48 h drug exposure) across 60 human cancer cell lines through the National Cancer Institute (NCI) Developmental Therapies Screening Program (Boyd et al., 1995)."}, "colon sub-panel": {"tested_on": "colon sub-panel", "experiment": "cells", "type": "cell-based", "conditions": "Homo sapiens, SW-620, read-out: mean LC50 in colon sub-panel", "description": "as §2"}, "[1]": {"tested_on": "60 human cancer cell lines", "experiment": "cells", "type": "cell-based", "conditions": "Homo sapiens; for CC50: 60 cell, 48 h, read-out: mean LC50; for GI50: mean over NCI 60 cell panel, 48 h drug exposure", "description": "as §2"}, "[2]": {"tested_on": "Mycobacterium tuberculosis H37Rv (ATCC 27294)", "experiment": "Microplate Alamar Blue Assay (MABA), TAACF primary screening", "type": "cell-based", "conditions": "lowest concentration effecting a reduction in fluorescence of 90% relative to controls", "source_text": "Compounds were submitted to the Tuberculosis Antimicrobial Acquisition and Coordinating Facility (TAACF) for testing as antimycobacterial drugs.\nCompounds were subjected to in vitro evaluation for antimycobacterial activity.\nSee, for example, Collins et al., 1997."}, "[3]": {"tested_on": "MDA 468 (ER−) breast carcinoma", "experiment": "Growth inhibitory assay (MTT, 72 hr)", "type": "cell-based", "conditions": "Homo sapiens, 72 hr exposure", "description": "as §1"}, "[4]": {"tested_on": "MCF-7 (ER+) breast carcinoma", "experiment": "Growth inhibitory assay (MTT, 72 hr)", "type": "cell-based", "conditions": "Homo sapiens, MCF7, 72 hr exposure", "description": "as §1"}, "[5]": {"conditions": "bovine, serum; cited from earlier work"}},
  "data": [
    {"smiles": "CN(C)CC1CCC(CN(C)C)C1=O", "note": "(centres unmarked) [NSC-131233, 2,5-bis[(dimethylamino)methyl]cyclopentanone]", "values": [
      {"measurement": "Ki", "setting": "thioredoxin", "value": 1000, "unit": "nM"}
    ]},
    {"smiles": "O=C1C=CC(O)(c2cc3ccccc3o2)C=C1", "note": "[Q01, 4-(Benzofuran-2-yl)-4-hydroxy-2,5-cyclohexadien-1-one]", "values": [
      {"measurement": "IC50", "setting": "A549 lung adenocarcinoma", "value": 2300, "unit": "nM"},
      {"measurement": "IC50", "setting": "HCT 116 colon carcinoma", "value": 159, "unit": "nM"},
      {"measurement": "IC50", "setting": "HT29 colon carcinoma", "value": 419, "unit": "nM"},
      {"measurement": "mean LC50", "setting": "renal sub-panel", "value": 2400, "unit": "nM"},
      {"measurement": "LC50", "setting": "colon sub-panel", "value": 3660, "unit": "nM"},
      {"measurement": "CC50", "setting": "[1]", "value": 7.24, "unit": "µM"},
      {"measurement": "GI50", "setting": "[1]", "value": 520, "unit": "nM"},
      {"measurement": "MIC", "setting": "[2]", "value": 1.56, "unit": "µg/mL"}
    ]},
    {"smiles": "O=C1C=CC(O)(c2cc3ccccc3[nH]2)C=C1", "note": "[Q03, 4-(Indol-2-yl)-4-hydroxy-2,5-cyclohexadien-1-one]", "values": [
      {"measurement": "melting point", "value": 133, "unit": "°C"},
      {"measurement": "IC50", "setting": "A549 lung adenocarcinoma", "value": 6130, "unit": "nM"},
      {"measurement": "IC50", "setting": "HCT 116 colon carcinoma", "value": 2840, "unit": "nM"},
      {"measurement": "IC50", "setting": "HT29 colon carcinoma", "value": 1760, "unit": "nM"},
      {"measurement": "GI50", "setting": "[1]", "value": 1410, "unit": "nM"},
      {"measurement": "MIC", "setting": "[2]", "value": 3.13, "unit": "µg/mL"}
    ]},
    {"smiles": "O=C1C=CC(O)(c2nc3ccccc3o2)C=C1", "note": "[Q04, 4-(Benzoxazol-2-yl)-4-hydroxy-2,5-cyclohexadien-1-one]", "values": [
      {"measurement": "IC50", "setting": "A549 lung adenocarcinoma", "value": 2330, "unit": "nM"},
      {"measurement": "IC50", "setting": "[3]", "value": 350, "unit": "nM"},
      {"measurement": "IC50", "setting": "HCT 116 colon carcinoma", "value": 180, "unit": "nM"},
      {"measurement": "IC50", "setting": "[4]", "value": 390, "unit": "nM"},
      {"measurement": "IC50", "setting": "HT29 colon carcinoma", "value": 290, "unit": "nM"},
      {"measurement": "mean LC50", "setting": "renal sub-panel", "value": 1640, "unit": "nM"},
      {"measurement": "LC50", "setting": "colon sub-panel", "value": 1130, "unit": "nM"},
      {"measurement": "CC50", "setting": "[1]", "value": 7.08, "unit": "µM"},
      {"measurement": "GI50", "setting": "[1]", "value": 460, "unit": "nM"},
      {"measurement": "MIC", "setting": "[2]", "value": 1.56, "unit": "µg/mL"}
    ]},
    {"smiles": "O=CN/C=C/c1cc(O)ccc1O", "note": "[erbstatin]", "values": [
      {"measurement": "half-life", "setting": "[5]", "value": "< 30", "unit": "min"}
    ]}
  ]
}
